Where a name gives a salt, the structure may show the parent alone.

Assay [1] deals with serotonin (5-HT) uptake, rat whole brain synaptosomes. Put plainly: Inhibition of tritiated serotonin uptake into synaptosomes from rat whole brain in vitro. The class given is biochemical. The note with it: for IC50: rat whole brain synaptosomes, 3H-5-HT about 1×10^-7 M, 5 min preincubation, 4 min incubation. The protocol:
(§1) Compounds of the previous examples are tested for their ability to block the uptake of tritiated serotonin into synaptosomal nerve endings from rat whole brain in vitro essentially by the method of Thornburg and Moore as described in Res. Comm. Chem. Pathol. Pharmacol. 5, 81 (1973). The preincubation period of the test compound (added in ethanol solution) with the whole brain synaptosome suspension in Krebs buffer is 5 minutes. The incubation period, following the addition of tritiated serotonin (^3 H-5-HT) to a final concentration of about 1×10^-7 M, is 4 minutes. The concentration of test agent required to inhibit serotonin uptake by 50% of control value i.e. the IC50, is determined graphically and expressed in micromolar concentration.

Assay [2] has as its system norepinephrine (NE) uptake, rat whole brain synaptosomes. Put plainly: Inhibition of tritiated norepinephrine uptake into synaptosomes from rat whole brain in vitro. Type of assay: biochemical. The note with it: 3H-NE. The protocol: as §1
The concentration of test agent required to inhibit norepinephrine (NE) uptake by 50% of the control value, i.e., the IC50 is similarly determined using tritiated norepinephrine (^3 H-NE) and is also expressed in micromolar concentration.

For another assay, the system named is serotonin uptake. Kind of assay: H 75/12 test: inhibition of the serotonin depleting effect of H 75/12 in rat brain. Type of assay: in vivo. Particulars: for ED50: oral, 30 minutes before H 75/12 (25 mg/kg s.c.), 4 hours. The protocol: The inhibition of the serotonin depleting effect of 3-hydroxy-4-methyl-α-ethylphenethylamine (H 75/12) in rat brain serves as an indirect indication of serotonin uptake inhibitory activity. (Carlsson, Corrodi, Fuxe and Hoekfelt, Europ. J. Pharmacol. 5, 357, 1969). A diminution of serotonin release by H 75/12 is considered to be due to a serotonin uptake inhibitory effect of the test compound. The compound to be tested is administered orally 30 minutes before H 75/12 (25 mg/kg s.c.) and the animals are decapitated 4 hours thereafter. The brains are immdiately taken out and serotonin is determined as described above. The ED50 represents the dose of the test compound inhibiting the serotonin-depleting effect of H75/12 by 50%.

The next assay deals with serotonin (5-HT) uptake. Put plainly: Serotonin (5-HT) uptake inhibition in rats pretreated with compounds. The class given is in vivo, rat. On the procedure: Serotonin (5-HT) uptake inhibition is also determined in rats pretreated with compounds of the instant invention.
For assay [3], the system named is serotonin (5-HT) uptake, rat midbrain synaptosomes. Kind of assay: Inhibition of 3H-5-HT uptake in rat midbrain synaptosomes in vitro. Type of assay: biochemical. Particulars: rat midbrain-diencephalon synaptosomes; 5-HT 2.5×10^-9 M; 10 minutes. The protocol: The inhibition of serotonin (5-HT) uptake indicative of potential antidepressant activity is determined in rat midbrain synaptosomes in vitro as follows:
Synaptosomes from the rat midbrain-diencephalon region are prepared and the uptake of ^3 H-5-HT measured as described by Baumann and Maitre, Naunyn-Schmiedeberg's Arch. Pharmacol. 300, 31 (1977). The concentration of 5-HT in the incubation medium is 2.5×10^-9 M, and the incubation period is 10 minutes. The concentration of a compound of this invention required to inhibit serotonin uptake by 50%, i.e. the IC50, is determined.

Assay [4] deals with reserpine treated rabbits. Kind of assay: Reversal of reserpine-induced ptosis in the rabbit. Type of assay: in vivo. The note with it: reserpine 2 mg/kg i.v. 90 minutes before i.v. infusion of 0.2% drug solution. The protocol:
The serotonin uptake inhibiting or serotonin activating properties of the compounds of the invention are indicative of antidepressant properties as determined by the reversal of reserpine-induced ptosis (i.e. […]) in the rabbit. Rabbits are injected intravenously with 2 mg/kg reserpine 90 minutes before the i.v. infusion of 0.2% drug solution into the ear vein according to the method of J. Mizoule et al. (J. Pharmacol., 8, 3, 269-285, 1977). The complete opening of the eye-lids is taken as a criterion for reversal of the reserpine-induced ptosis. The results are expressed in terms of the mean dose of test compound inducing complete opening of the eye-lids in reserpine treated rabbits.

The subject of assay [5] is norepinephrine (NE) uptake, rat midbrain synaptosomes. Put plainly: Inhibition of 3H-NE uptake in rat midbrain synaptosomes in vitro. The class given is biochemical. The note with it: rat midbrain-diencephalon synaptosomes; NE 1×10^-8 M; 20 minutes. On the procedure:
The inhibition of norepinephrine (NE) uptake is determined in rat midbrain synaptosomes in vitro as follows:
Synaptosomes from the rat midbrain-diencephalon region are prepared and the uptake of ^3 H-NE is measured as described by Baumann and Maitre, Naunyn-Schmiedeberg's Arch. Pharmacol. 300, 31 (1977). The concenrtration of NE in the incubation medium is 1×10^-8 M, and the incubation period is 20 minutes. The concentration required to inhibit norepinephrine uptake by 50%, i.e. the IC50, is determined.

As usually defined, the IC50 is the midpoint of a concentration-inhibition curve. Read a low IC50 as greater potency in that assay. As to `COc1cccc(OCC(Cc2ccccc2)CN(C)C)c1` (centres unmarked) [3/1], the IC50 in assay [1] was found to be 430 nM; in assay [2], 4300 nM.

By ED50 is commonly meant the dose at which the effect has come halfway, by size or by number of responders. The low end stands for greater potency, the high end for weaker potency. With `CSc1ccc(OCC(Cc2ccccc2)CN(C)C)cc1.O=C(O)C(=O)O` (centres unmarked) [3/2, N,N-dimethyl-2-benzyl-3-(4-methylmercaptophenoxy)-propylamine oxalate], in the assay on serotonin uptake, the ED50 was roughly 2.3 mg/kg. For the same molecule, the IC50 in assay [1] was 270 nM; in assay [2], 10800 nM; in assay [3], roughly 30 nM; in assay [5], roughly 500 nM. Further, the “inhibition of 3H-5HT uptake” value in the assay with serotonin (5-HT) uptake (30 mg/kg p.o.) is reported as “about 80%”. Further, the “mean dose inducing complete opening of the eye-lids” value (from here on “mean dose inducing complete opening”) in assay [4] is “about 7.7 mg/kg i.v”.

For `CN(C)CC(COc1ccccc1Cl)Cc1ccccc1` (centres unmarked) [3/3], the IC50 came to 1300 nM in assay [1] and 5300 nM in assay [2].

For `CN(C)CC(COc1ccc(Cl)cc1)Cc1ccccc1` (centres unmarked) [3/4], the half-maximal inhibitory concentration (IC50) was 1490 nM in assay [1] and 12000 nM in assay [2].

Turning to `COc1ccc(OCC(Cc2ccccc2)CN2CCCCC2)cc1` (centres unmarked) [3/5], the values for the IC50 in assay [1] and in assay [2] were 6100 nM and 39500 nM, respectively.

Consider `CN(C)CC(COc1cccc(Cl)c1)Cc1ccccc1` (centres unmarked) [3/6], for which the IC50 came out at 2700 nM in assay [1] and 16100 nM in assay [2].

As for `Cc1ccc(OCC(Cc2ccccc2)CN(C)C)cc1` (centres unmarked) [3/7], the figures for the IC50 in assay [1] and in assay [2] were 1220 nM and 12500 nM, respectively.

As to `Cc1cccc(OCC(Cc2ccccc2)CN(C)C)c1` (centres unmarked) [3/8], the half-inhibitory concentration (IC50) came out at 1250 nM in assay [1] and 3250 nM in assay [2].

For the molecule `COc1ccc(SCC(Cc2ccccc2)CN(C)C)cc1` (centres unmarked) [3/9], the results for the IC50 in assay [1] and in assay [2] were 1530 nM and 8100 nM, respectively.

Turning to `CN(C)CC(COc1cccc(C(F)(F)F)c1)Cc1ccccc1` (centres unmarked) [3/10], the IC50 in assay [1] worked out at 2250 nM; in assay [2] it was 6900 nM.

With `COc1cccc(SCC(Cc2ccccc2)CN(C)C)c1` (centres unmarked) [3/11], the IC50 in assay [1] turned out to be 1950 nM; in assay [2], 7600 nM.

Regarding `COc1cc(OC)cc(OCC(Cc2ccccc2)CN(C)C)c1` (centres unmarked) [3/12], the IC50 turned out to be 1520 nM in assay [1] and 4300 nM in assay [2].

Turning to `C=CCOc1cccc(OCC(Cc2ccccc2)CN(C)C)c1` (centres unmarked) [3/13], the figures for the half-inhibitory concentration (IC50) in assay [1] and in assay [2] were 590 nM and 1440 nM, respectively.

Consider `CSc1ccc(OCC(Cc2ccc(Cl)cc2)CN(C)C)cc1` (centres unmarked) [3/14], for which the figures for the IC50 in assay [1] and in assay [2] were 670 nM and 7100 nM, respectively.

`CN(C)CC(COc1ccc(C(F)(F)F)cc1)Cc1cccc(Cl)c1` (centres unmarked) [3/15]: the half-maximal inhibitory concentration (IC50) in assay [1] turned out to be 6000 nM; in assay [2] it was 32000 nM.

In the case of `COc1ccc(OCC(Cc2ccccc2)CN(C)C)cc1` (centres unmarked) [3/16], the figures for the IC50 in assay [1] and in assay [2] were 560 nM and 570 nM, respectively.

For the molecule `CNCC(COc1ccc(OC)cc1)Cc1ccccc1` (centres unmarked) [6/1], the IC50 in assay [1] was 440 nM; in assay [2], 1250 nM.

`CNCC(COc1ccc(SC)cc1)Cc1ccccc1` (centres unmarked) [6/2, N-methyl-2-benzyl-3-(4-methylthiophenoxy)propylamine]: the figures for the IC50 in assay [1] and in assay [2] were 140 nM and 2500 nM, respectively.

Take `CNCC(COc1ccc(SC)cc1)Cc1cccc(Cl)c1` (centres unmarked) [6/3]: the IC50 in assay [1] came to 2700 nM; in assay [2], 11000 nM.

Take `CN(C)CC(COc1ccc(C(F)(F)F)cc1)Cc1ccccc1.O=C(O)C(=O)O` (centres unmarked) [Example 1, N,N-dimethyl-2-benzyl-3-(4-trifluoromethylphenoxy)propylamine oxalate]: the ED50 with serotonin uptake was roughly 4.5 mg/kg. In addition, the IC50 in assay [1] was 490 nM; in assay [2], 15200 nM; in assay [3] it was roughly 15 nM; in assay [5], roughly 3000 nM. For the same molecule, in the assay with serotonin (5-HT) uptake (30 mg/kg p.o.), the “inhibition of 3H-5HT uptake” value is roughly 60%. The “mean dose inducing complete opening” value in assay [4] is listed as roughly 12.6 mg/kg i.v.

In the case of `CSc1ccc(OCC(Cc2cccc(Cl)c2)CN(C)C)cc1.O=C(O)C(=O)O` (centres unmarked) [Example 2, N,N-dimethyl-2-(3-chlorobenzyl)-3-(4-methylmercaptophenoxy)propylamine oxalate], the ED50 in the assay on serotonin uptake was roughly 1.4 mg/kg. Further, the IC50 is 30 nM in assay [1] and 5000 nM in assay [2].

For the molecule `CNCC(COc1ccc(C(F)(F)F)cc1)Cc1ccccc1` (centres unmarked) [Example 4, N-methyl-2-benzyl-3-(4-trifluoromethylphenoxy)propylamine hydrochloride], the IC50 in assay [1] was 390 nM; in assay [2], 12600 nM.

Turning to `CNCC(COc1cccc(OC)c1)Cc1ccccc1` (centres unmarked) [Example 5, N-methyl-2-benzyl-3-(3-methoxyphenoxy)propylamine oxalate], the IC50 was found to be 940 nM in assay [1] and 1390 nM in assay [2].

With `CNCC(COc1ccccc1OC)Cc1ccccc1` (centres unmarked) [Example 8, N-methyl-2-benzyl-3-(2-methoxyphenoxy)propylamine oxalate], the IC50 came to 5400 nM in assay [1] and 8900 nM in assay [2].

As to `CCN(CC)CC(COc1ccccc1)Cc1ccccc1.Cl` (centres unmarked) [Example 16, N,N-diethyl-2-benzyl-3-phenoxypropylamine hydrochloride, reference compound], the “inhibition of the serotonin-depleting effect of H 75/12” value in the assay on serotonin uptake (30 mg/Kg p.o.) is 17%. Besides, in the assay on serotonin uptake (30 mg/Kg p.o., in words), the “in vivo serotonin uptake inhibitory activity” value is “no significant in vivo serotonin uptake inhibitory activity”. Further, the “selectivity (serotonin vs norepinephrine uptake) in in vitro tests” value in assay [1] (in vitro, whole brain and midbrain synaptosomes, in words) is on record as “no selectivity is seen in in vitro tests”. The half-maximal inhibitory concentration (IC50) in assay [1] came out at 7300 nM; in assay [2] it was 3300 nM; in assay [3], 2200 nM; in assay [5], 2000 nM.

As for `CNCC(COc1ccc(C(F)(F)F)cc1)Cc1ccccc1.O=C(O)C(=O)O` (centres unmarked) [N-methyl-2-benzyl-3-(4-trifluoromethylphenoxy)-propylamine oxalate], the ED50 in the assay on serotonin uptake is roughly 1.8 mg/kg. In addition, the “inhibition of 3H-5HT uptake” value in the assay on serotonin (5-HT) uptake (10 mg/kg p.o.) is recorded as roughly 50%. Also, the figures for the IC50 in assay [3] and in assay [5] were roughly 10 nM and roughly 2000 nM, respectively. Also, the “mean dose inducing complete opening” value in assay [4] is listed as roughly 12.9 mg/kg i.v.
